Test results as given in US8207135B2, “Compositions for and methods of enhancing the immune response to antigens” (Wittycell, priority 2007, dated 2012).

B1: ovalbumin (protein, UniProt P01012 2-386, looked up)
Ovalbumin: GSIGAASMEFCFDVFKELKVHHANENIFYCPIAIMSALAMVYLGAKDSTRTQINKVVRFDKLPGFGDSIEAQCGTSVNVHSSLRDILNQITKPNDVYSFSLASRLYAEERYPILPEYLQCVKELYRGGLEPINFQTAADQARELINSWVESQTNGIIRNVLQPSSVDSQTAMVLVNAIVFKGLWEKAFKDEDTQAMPFRVTEQESKPVQMMYQIGLFRVASMASEKMKILELPFASGTMSMLVLLPDEVSGLEQLESIINFEKLTEWTSSNVMEERKIKVYLPRMKMEEKYNLTSVLMAMGITDVFSSSANLSGISSAESLKISQAVHAAHAEINEAGREVVGSAEAGVDAASVSEEFRADHPFLFCIKHIATNAVLFFGRCVSP
notes: nominal antigen, Ovalbumin grade VII, Sigma

Assays:
[1] = system: CD8+ T cells responsive to OVA; test: SIINFEKL pentamer assay of OVA-specific CD8+ T cells (FACS); assay type: in vivo, mouse; settings: IM, days 0 and 14, blood day 21
Procedure: To verify the results obtained using the in vivo cytotoxicity assay described in the Examples above, similar experiments were performed and CD8+ T cell activation was determined by measuring the percentage of OVA-specific CD8+ T cells using a pentamer assay. Briefly, mice were injected intramuscularly with the indicated amounts of OVA and test adjuvant compound at either 1 μg or 100 ng per mouse, respectively on day 0 as follows:
Experiment A: • Group 1: 100 μl of PBS; • Group 2: 50 μg of Ova into 100 μl PBS; • Group 3: 50 μg of Ova with 1 μg αGalCer; • Group 4: 50 μg of Ova with 1 μg PBS-11 • Group 5: 50 μg of Ova with 1 μg PBS-14 • Group 6: 50 μg of Ova with 1 μg PBS-57 • Group 7: 50 μg of Ova with 1 μg PBS-96
Experiment B: • Group 1: 100 μl of PBS; • Group 2: 50 μg of Ova into 100 μl PBS; • Group 3: 50 μg of Ova with 100 ng αGalCer; • Group 4: 50 μg of Ova with 100 ng PBS-11 • Group 5: 50 μg of Ova with 100 ng PBS-14 • Group 6: 50 μg of Ova with 100 ng PBS-57 • Group 7: 50 μg of Ova with 100 ng PBS-96 A second injection was administered to the mice on day 14 and blood was collected from the mice on day 21. The lymphocytes were collected and analyzed by FACS analysis using H-2 K^b SIINFEKL pentamer and CD8 antibody to detect CD8+ T cells responsive to OVA.

[2] = system: Ova-specific target cells; test: in vivo cytotoxic specific cell lysis assay (CD8+ T cell response) in immunized mice; parameters: species or system mouse; settings: for specific lysis of Ova-specific target cells in blood: Example 1, FIG. 1, 1 μg adjuvant with 50 μg Ova, day 11; for specific lysis of Ova-specific target cells in blood / average Ova-specific cell lysis / average Ova-specific cytotoxic response: IV; for average Ova-specific cell lysis: Example 4, FIG. 6, 400 μg Ova with or without 1 μg adjuvant (PBS-57 new formulation); for average Ova-specific cell lysis / average Ova-specific cytotoxic response / average OVA-specific cytotoxic response: day 11 blood; for percentage of specific lysis of the target cells by CD8+ T cells: Example 5 Experiment B, FIG. 8, 50 μg OVA with 10 ng adjuvant intramuscularly; for average Ova-specific cytotoxic response: Example 2, FIG. 2; for average Ova-specific cytotoxic response / average OVA-specific cytotoxic response: 400 μg Ova with or without 1 μg adjuvant; for average OVA-specific cytotoxic response: Example 2, FIG. 3, IM
OVA-specific IgG1 = OVA-specific IgG1 ELISA after intramuscular immunization; assay type: in vivo, mouse; settings: FIG. 11; IM, 50 μg OVA with 100 ng adjuvant, 14 days post-injection
Procedure: (§1) Mice (6 per group) were injected intramuscularly with 50 μg of OVA either alone or in combination with 100 ng of the indicated adjuvants (Freund's adjuvant was used as a positive control) as follows: • Group 1: […] of Ova with CFA/IFA (Positive control) • Group 2: 50 μg of Ova • Group 3: 50 μg of Ova and 100 ng of αGalCer • Group 4: 50 μg of Ova and 100 ng of PBS-11 • Group 5: 50 μg of Ova and 100 ng of PBS-14 • Group 6: 50 μg of Ova and 100 ng of PBS-57 • Group 7: 50 μg of Ova and 100 ng of PBS-96 At 14 days post-injection, blood samples were collected and ELISAs for IgG1 and IgG2a were performed using mouse monoclonal antibodies specific for OVA isotype IgG1 or IgG2a. The results are shown as the titer of the antibody in peripheral blood in ng/ml. The results for IgG1 are depicted in FIG. 11 and those for IgG2a are depicted in FIG. 12.

IFNγ = test: in vivo IFNγ release in sera by ELISA 24 hours after inoculation; parameters: species or system C57BL/6 mice; settings: Quantikine kit, FIG. 4
Procedure: To test the ability of the adjuvant test compounds to stimulate in vivo cytokine release, C57BL/6 mice were administered the compounds at different concentrations intravenously and the production of IFNγ in sera was measured 24 hours later by ELISA. Groups of 3 mice were inoculated intravenously (tail vein) on day 0 as follows: • Group 1: 100 μl of PBS alone • Group 2: 1 μg of αGalCer in 100 μl of PBS • Group 3: 100 ng of αGalCer in 100 μl of PBS • Group 4: 1 ng of αGalCer in 100 μl of PBS • Group 5: 0.1 ng of αGalCer in 100 μl of PBS • Group 6: 100 ng of αGalCer and 100 μg of Ova in 100 μl of PBS • Group 7: 1 μg of PBS-57 in 100 μl of PBS • Group 8: 100 ng of PBS-57 in 100 μl of PBS • Group 9: 1 ng of PBS-57 in 100 μl of PBS • Group 10: 0.1 ng of PBS-57 in 100 μl of PBS • Group 11: 100 ng of PBS-57 and 400 μg of Ova into 100 μl of PBS • Group 12: 1 μg of PBS-14 in 100 μl of PBS • Group 13: 100 ng of PBS-14 in 100 μl of PBS • Group 14: 1 ng of PBS-14 in 100 μl of PBS • Group 15: 0.1 ng of PBS-14 in 100 μl of PBS • Group 16: 100 ng of PBS-14 and 400 μg of Ova in 100 μl of PBS • Group 17: 1 μg of PBS-96 in 100 μl of PBS • Group 18: 100 ng of PBS-96 in 100 μl of PBS • Group 19: 1 ng of PBS-96 in 100 μl of PBS • Group 20: 0.1 ng of PBS-96 in 100 μl of PBS • Group 21: 100 ng of PBS-96 and 400 μg of Ova in 100 μl of PBS. 24 hours after inoculation, blood samples were collected from the mice and IFNγ levels were detected by ELISA kit. Two ELISA kits were used, Quantikine mouse IFNγ (RD systems) was used to test all samples and ELISA mIFNγ (Diaclone) was used to test group 1, 2, 3, 6, 7, 8, 11, 12, 13, 16, 17, 18 and 21. All sera were diluted before use in ELISA as follows:
Results are expressed as IFNγ concentration (pg/ml) in sera and take into account the dilution factor. FIG. 4 depicts results using the Quantikine mouse IFNγ kit by RD systems. FIG. 4A depicts results of IFNγ levels for mice immunized with PBS-57, FIG. 4B depicts results of IFNγ levels for mice immunized with PBS-14, FIG. 4C depicts results of IFNγ levels for mice immunized with PBS-96 and FIG. 4D depicts results of IFNγ levels for mice immunized with αGalCer. At 0.1 ng, all adjuvant candidates induce cytokine release, but mice immunized with αGalCer produced three- or four-fold less IFNγ than mice immunized with PBS-57, PBS-14 or PBS-96 (1540.57±397.53 pg/ml, 4398.05±880.86 pg/ml, 6669.31±1231.82 pg/ml, 5823.33±720.69 pg/ml respectively).
Another set of mice were used to compare the ability of adjuvant compounds to stimulate in vivo cytokine release by the method described above. Five groups of C57BL/6 mice were administered 100 ng of PBS-57, PBS-14, PBS-96, or PBS-11 in 100 μl PBS or 100 μl PBS alone intravenously. The production of IFNγ in sera was measured 24 hours later by ELISA. FIG. 5 depicts results for mice immunized with 100 ng of PBS-11, PBS-96, PBS-14 and PBS-57.

OVA specific IgG2a = test: OVA-specific IgG2a ELISA after intramuscular immunization; assay type: in vivo, mouse; settings: FIG. 12; IM, 50 μg OVA with 100 ng adjuvant, 14 days post-injection
Procedure: as §1

[3] = Example 6 Experiment A, FIG. 9, 50 μg Ova with 1 μg adjuvant

Row | Molecule | percentage of OVA specific CD8+ T cells [1, 3] | specific lysis of Ova-specific target cells in blood [2] | average Ova-specific cell lysis [2] [%] | percentage of specific lysis of the target cells by CD8+ T cells [2] | percentage of OVA specific CD8+ T cells ([1]; Example 6 Experiment B, FIG. 10, 50 μg Ova with 100 ng adjuvant) | average Ova-specific cytotoxic response [2] [%] | average OVA-specific cytotoxic response [2] [%] | enhancement of the CD8+ T cell response (specific lysis) at low doses ([2]; Example 5 Experiments A and B, FIGS. 7 and 8, 50 μg OVA with 100 ng or 10 ng adjuvant intramuscularly) | OVA-specific IgG1 titer in peripheral blood (OVA-specific IgG1) | IFNγ concentration in sera (IFNγ; 0.1 ng IV) [pg/mL] | IFNγ concentration in sera (IFNγ; 1 ng IV) [pg/mL] | IFNγ concentration in sera (IFNγ; 100 ng IV) [pg/mL] | IFNγ concentration in sera (IFNγ; 1 μg IV) [pg/mL] | OVA specific IgG2a titer in peripheral blood (OVA specific IgG2a)
1 | CCCCCCCCCCCCCCCCCCCCCCCCCC(=O)N[C@@H](CO[C@H]1O[C@H](CNC(=O)CCCC[C@@H]2SC[C@@H]3NC(=O)N[C@@H]32)[C@H](O)[C@H](O)[C@H]1O)[C@H](O)[C@H](O)CCCCCCCCCCCCCC [PBS-11, reference compound] | not as effective | did not result in specific lysis of cells | 32.3±2.5 | indistinguishable from the controls | – | – | – | – | – | – | – | – | – | –
2 | CCCCCCCCCCCCCCCCCCCCCCCCCC(=O)N[C@@H](CO[C@H]1O[C@H](CNC(C)=O)[C@H](O)[C@H](O)[C@H]1O)[C@H](O)[C@H](O)CCCCCCCCCCCCCC [PBS-14] | enhanced the percentage of OVA specific CD8+ T cells | resulted in cytotoxic lysis of Ova-specific target cells | 83.3±6.1 | – | surprisingly much better at enhancing the CD8+ T cell response | 83.3±6.1 | 52.07±29.56 | unexpectedly better than other adjuvants | able to elicit a robust IgG1 titer | 6669.31 ± 1231.82 | 7481.15 ± 3454.03 | 19582.18 ± 3421.20 | 16392.53 ± 5957.70 | about as well as Freund's adjuvant
3 | CCCCCCCCCCCCCCCCCCCCCCCCCC(=O)N[C@@H](CO[C@H]1O[C@H](CO)[C@H](O)[C@H](O)[C@H]1O)[C@H](O)[C@H](O)CCCCCCCCCCCCCC [αGalCer, α-galactosyceramide, reference compound] | not as effective | – | – | indistinguishable from the controls | – | 79.9±0.8 | −5.85±11.01 | – | – | 1540.57 ± 397.53 | 3802.99 ± 586.02 | 7714.37 ± 3529.07 | – | –
4 | CCCCCCCC/C=C\CCCCCCCCCCCCCC(=O)N[C@@H](CO[C@H]1O[C@H](CNC(C)=O)[C@H](O)[C@H](O)[C@H]1O)[C@H](O)[C@H](O)CCCCCCCCCCCCCC [PBS-57, reference compound] | enhanced the percentage of OVA specific CD8+ T cells | – | 88.1±6.2 | indistinguishable from the controls | – | 88.1±6.2 | 56.11±13.34 | – | able to elicit a robust IgG1 titer | 4398.05 ± 880.86 | 11425.98 ± 833.04 | 21432.76 ± 4312.76 | 3353.45 ± 867.57 | –
5 | B1 | – | – | 11.8±14.4 | – | – | 11.8±14.4 | 1.60±14.33 | – | – | – | – | – | – | –
